Activity calls are given as the source filed them. No cut-off for these calls is given here.
Assays:
Exportin-1 [1] = target: T1, Exportin-1 (Homo sapiens, UniProt O14980); test: Inhibition of Crm1 in human U2OS cells expressing GFP-fused HIV1 Rev assessed as decrease in nuclear export of GFP-fused HIV1 Rev after 1 hr by Hoechst 33258 staining-based assay; format: cell-based
[2] = Antitumor activity against 350 mm'3 human HCT116 cells xenografted in mouse assessed as tumor growth inhibition at 30 mg/kg, iv qd administered for 2 days measured after day 24 relative to control; format: functional; conditions: HCT-116, iv, read-out: TGI
Exportin-1 [3] = target: T1, Exportin-1; test: Inhibition of Crm1 in human H929 cells assessed as decrease in nuclear export of topoisomerase-2 by measuring caspase-3 levels at 0.1 to 10 uM preincubated for 16 hrs followed by addition of topoisomerase-2 inhibitor doxorubicin measured after 4 hrs by anti-caspase-3 assay; format: cell-based

T1 sequence (O14980 whole entry, the tested form may be a part): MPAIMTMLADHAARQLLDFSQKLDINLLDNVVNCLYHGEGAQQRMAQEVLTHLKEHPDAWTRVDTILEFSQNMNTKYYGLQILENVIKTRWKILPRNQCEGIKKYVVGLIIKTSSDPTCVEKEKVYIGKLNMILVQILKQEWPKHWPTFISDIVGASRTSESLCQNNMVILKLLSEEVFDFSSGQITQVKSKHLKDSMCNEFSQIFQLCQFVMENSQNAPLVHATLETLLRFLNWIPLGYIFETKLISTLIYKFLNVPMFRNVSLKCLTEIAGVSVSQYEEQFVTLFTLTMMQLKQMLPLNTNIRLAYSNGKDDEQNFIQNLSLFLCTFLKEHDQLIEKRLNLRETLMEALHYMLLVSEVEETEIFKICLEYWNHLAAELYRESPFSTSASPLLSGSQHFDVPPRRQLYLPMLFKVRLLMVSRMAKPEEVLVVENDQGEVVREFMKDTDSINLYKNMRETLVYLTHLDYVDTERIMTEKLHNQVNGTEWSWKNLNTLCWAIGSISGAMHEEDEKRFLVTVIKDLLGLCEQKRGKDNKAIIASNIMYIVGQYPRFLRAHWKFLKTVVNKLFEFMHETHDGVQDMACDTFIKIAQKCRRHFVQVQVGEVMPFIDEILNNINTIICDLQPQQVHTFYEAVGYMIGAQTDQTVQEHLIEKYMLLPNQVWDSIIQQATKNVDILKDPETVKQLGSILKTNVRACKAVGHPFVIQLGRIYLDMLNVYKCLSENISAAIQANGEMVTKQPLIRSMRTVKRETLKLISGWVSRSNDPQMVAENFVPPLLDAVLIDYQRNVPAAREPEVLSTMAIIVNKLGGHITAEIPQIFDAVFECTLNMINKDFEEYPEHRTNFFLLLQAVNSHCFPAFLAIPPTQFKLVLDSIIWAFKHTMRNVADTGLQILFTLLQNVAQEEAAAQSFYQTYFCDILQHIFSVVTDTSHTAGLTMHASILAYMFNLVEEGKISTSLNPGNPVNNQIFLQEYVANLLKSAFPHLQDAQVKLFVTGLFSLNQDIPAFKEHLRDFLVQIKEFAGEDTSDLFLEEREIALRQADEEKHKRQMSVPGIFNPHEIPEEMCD

| Structure (SMILES) | IC50 (Exportin-1 [1]) | also measured |
| --- | --- | --- |
| CC(C)(C)OC(=O)/C=C/n1cnc(-c2cccc(Cl)c2)n1 | ≥ 10000 nM | – |
| CCc1c2c(nc3ccc(OC(=O)N4CCC(N5CCCCC5)CC4)cc13)-c1cc3c(c(=O)n1C2)COC(=O)[C@]3(O)CC [IRINOTECAN] | – | inhibition in vivo at 30 mg/kg [2]: 78% |
| CCOC(=O)/C=C\n1cnc(-c2cc(F)cc(F)c2)n1 | 1000 to 10000 nM | – |
| O=C(/C=C/n1cnc(-c2cccc(Cl)c2)n1)OC1CNC1 | 1000 to 10000 nM | – |
| CN(C(=O)/C=C\c1nnc(-c2cccc(Cl)c2)[nH]1)c1ccccc1 | ≥ 10000 nM | – |
| FC(F)(F)/C=C\n1cnc(-c2cccc(Cl)c2)n1 | 1000 to 10000 nM | – |
| CC(C)Oc1cc(-c2ncn(/C=C\C#N)n2)cc(C(F)(F)F)c1 | ≤ 1000 nM | – |
| O=C(/C=C/n1cnc(-c2cccc(Cl)c2)n1)Nc1cccc(Cl)c1 | ≥ 10000 nM | – |
| CC(C)(C)OC(=O)/C=C\n1cnc(-c2cccc(Cl)c2)n1 | 1000 to 10000 nM | – |
| O=C(/C=C\c1nnc(-c2cccc(Cl)c2)[nH]1)Nc1ccccc1 | ≥ 10000 nM | – |
| CS(=O)(=O)/C=C\n1cnc(-c2cccc(Cl)c2)n1 | ≤ 1000 nM | – |
| O=C(/C=C\n1cnc(-c2cccc(Cl)c2)n1)OC1COC(=O)C1 (stereo unspecified) | 1000 to 10000 nM | – |
| O=C(/C=C\n1cnc(-c2cccc(Cl)c2)n1)NC1CCCC1 | ≥ 10000 nM | – |
| CC(C)OC(=O)/C=C\n1cnc(-c2csc(Cl)c2)n1 | ≤ 1000 nM | – |
| CC(C)OC(=O)/C=C\n1cnc(-c2cc(O/C=C/C(=O)OC(C)C)cc(C(F)(F)F)c2)n1 | 1000 to 10000 nM | – |
| CC(C)OC(=O)/C=C\c1n[nH]c(-c2cc(Cl)cc(Cl)c2)n1 | 1000 to 10000 nM | – |
| C[S+]([O-])/C=C\n1cnc(-c2cccc(Cl)c2)n1 (stereo unspecified) | 1000 to 10000 nM | – |
| CC(C)OC(=O)/C=C/n1cnc(-c2cc(OCCN(C)C)cc(C(F)(F)F)c2)n1 | 1000 to 10000 nM | – |
| Nc1ccc(NC(=O)/C=C/n2cnc(-c3cccc(Cl)c3)n2)cc1 | ≥ 10000 nM | – |
| COc1ccc(NC(=O)/C=C/n2cnc(-c3cccc(Cl)c3)n2)cc1 | ≥ 10000 nM | – |
| COc1cc(-c2ncn(/C=C\C(=O)OC(C)C)n2)cc(C(F)(F)F)c1 | ≤ 1000 nM | – |
| CC(C)OC(=O)/C=C\c1nnc(-c2cccc(F)c2)[nH]1 | 1000 to 10000 nM | – |
| N#C/C=C/n1cnc(-c2cccc(Cl)c2)n1 | 1000 to 10000 nM | – |
| CC(C)OC(=O)/C=C/n1cnc(-c2cc(OCCN3CCCC3)cc(C(F)(F)F)c2)n1 | ≥ 10000 nM | – |
| CC(C)OC(=O)/C=C\n1cnc(-c2ccc(-c3ccccc3)c(F)c2)n1 | ≥ 10000 nM | – |

| Structure (SMILES) | IC50 (Exportin-1 [1]) | also measured |
| --- | --- | --- |
| CC(C)(C)OC(=O)Nc1ccc(NC(=O)/C=C/n2cnc(-c3cccc(Cl)c3)n2)cc1 | ≥ 10000 nM | – |
| CC(C)OC(=O)/C=C\n1cnc(-c2csc(Br)n2)n1 | 1000 to 10000 nM | – |
| CC(C)OC(=O)/C=C\n1cnc(-c2cc(Cl)cc(Oc3ccc(Cl)cc3)c2)n1 | 1000 to 10000 nM | – |
| O=C(/C=C\n1cnc(-c2cccc(Cl)c2)n1)OCC1CCCN1 (stereo unspecified) | 1000 to 10000 nM | – |
| CC(C)OC(=O)/C=C\n1cnc(-c2ccc(Cl)c(Cl)c2)n1 | ≤ 1000 nM | – |
| CC(C)OC(=O)/C=C\n1cnc(-c2ccc(Oc3ccc(Cl)cc3)cc2)n1 | 1000 to 10000 nM | – |
| CC(C)OC(=O)/C=C\n1cnc(-c2cccc(C(F)(F)F)c2)n1 | ≤ 1000 nM | – |
| CC(C)OC(=O)/C=C\n1cnc(-c2cccc(Cl)c2)n1 | ≤ 1000 nM | inhibition (Exportin-1 [3]): Active |
| COc1cc(-c2ncn(/C=C\C(=O)OC(C)C)n2)cc(Cl)n1 | ≤ 1000 nM | – |
| O=C(/C=C\n1cnc(-c2cccc(Cl)c2)n1)OC1CCC1 | ≤ 1000 nM | – |
| CCOC(=O)/C=C\n1cnc(-c2cc(Cl)cc(Cl)c2)n1 | ≤ 1000 nM | – |
| CCOC(=O)/C=C\n1cnc(-c2cccc(Cl)c2)n1 | ≤ 1000 nM | – |
| CC(C)OC(=O)/C=C\n1cnc(-c2cc(OCCN3CCCC3)cc(C(F)(F)F)c2)n1 | ≤ 1000 nM | – |
| CC(C)OC(=O)/C=C/Cn1cnc(-c2cccc(Cl)c2)n1 | 1000 to 10000 nM | – |
| COc1cc(Cl)cc(-c2ncn(/C=C\C(=O)OC(C)C)n2)c1 | ≤ 1000 nM | – |
| CC(C)OC(=O)/C=C\n1cnc(-c2cncc(Cl)c2)n1 | ≤ 1000 nM | – |
| O=C(/C=C\n1cnc(-c2cccc(Cl)c2)n1)OCc1cnc[nH]1 | 1000 to 10000 nM | – |
| N#C/C=C\n1cnc(-c2cccc(Cl)c2)n1 | ≤ 1000 nM | – |
| CC(C)OC(=O)/C=C/n1cnc(-c2cccc(Cl)c2)n1 | ≥ 10000 nM | – |
| CCOC(=O)/C=C/n1cnc(-c2cccc(Cl)c2)n1 | ≥ 10000 nM | – |
| COc1ccc(-c2ncn(/C=C\C(=O)OC(C)C)n2)cc1Cl | 1000 to 10000 nM | – |
| COc1cc(-c2ncn(/C=C\C(=O)OC3CNC3)n2)cc(C(F)(F)F)c1 | ≤ 1000 nM | – |
| CC(C)OC(=O)/C=C\n1cnc(-c2cc(Cl)nc(OC(C)C)c2)n1 | ≤ 1000 nM | – |
| CC(C)OC(=O)/C=C\n1cnc(-c2csc(Cl)n2)n1 | 1000 to 10000 nM | – |
| CC(C)OC(=O)/C=C\Cn1cnc(-c2cccc(Cl)c2)n1 | 1000 to 10000 nM | – |

Second part, led by results:

| IC50 (Exportin-1 [1]) | Structure (SMILES) | also measured |
| --- | --- | --- |
| ≤ 1000 nM | O=C(/C=C\n1cnc(-c2cccc(Cl)c2)n1)N1CCC1 | – |
| ≤ 1000 nM | O=C(/C=C\n1cnc(-c2cccc(Cl)c2)n1)OC1CCCC1 | – |
| ≤ 1000 nM | CC(C)OC(=O)/C=C\n1cnc(-c2cc(Cl)nc(Cl)c2)n1 | – |
| ≤ 1000 nM | COc1cc(OC)cc(-c2ncn(/C=C\C(=O)OC(C)C)n2)c1 | – |
| ≤ 1000 nM | O=C(/C=C\n1cnc(-c2cc(Cl)nc(Cl)c2)n1)OC1CNC1 | – |
| ≤ 1000 nM | CC(C)OC(=O)/C=C\n1cnc(-c2cc(OC(C)C)nc(C(F)(F)F)c2)n1 | – |
| ≤ 1000 nM | O=C(/C=C\n1cnc(-c2cccc(Cl)c2)n1)OC1CNC1 | – |
| ≤ 1000 nM | Cc1cccc(-c2ncn(/C=C\C(=O)OC(C)C)n2)c1 | – |
| ≤ 1000 nM | CC(C)OC(=O)/C=C\n1cnc(-c2cc(Cl)cc(OC(F)(F)F)c2)n1 | – |
| ≤ 1000 nM | CNc1cc(Cl)cc(-c2ncn(/C=C\C(=O)OC(C)C)n2)c1 | – |
| ≤ 1000 nM | O=C(/C=C\n1cnc(-c2cccc(Cl)c2)n1)OC1CCOC1 (stereo unspecified) | – |
| ≤ 1000 nM | COCCOc1cc(Cl)cc(-c2ncn(/C=C\C(=O)OC(C)C)n2)c1 | – |
| ≤ 1000 nM | O=C(/C=C\n1cnc(-c2cccc(Cl)c2)n1)OC1COC1 | – |
| ≤ 1000 nM | CCOC(=O)/C=C\n1cnc(-c2cc(Cl)cc(OC)c2)n1 | – |
| ≤ 1000 nM | CC(C)OC(=O)/C=C\n1cnc(-c2cc(Cl)ccc2N)n1 | – |
| ≤ 1000 nM | CC(C)OC(=O)/C=C\n1cnc(-c2cc(OC(C)C)cc(C(F)(F)F)c2)n1 | – |
| ≤ 1000 nM | O=C(/C=C\n1cnc(-c2cccc(Cl)c2)n1)OCc1ccccn1 | – |
| ≤ 1000 nM | O=C(/C=C\n1cnc(-c2cccc(Cl)c2)n1)OC1CCCCC1 | – |
| ≤ 1000 nM | CC(C)OC(=O)/C=C\n1cnc(-c2cc(C#N)cc(OC(C)C)c2)n1 | – |
| ≤ 1000 nM | CC(C)OC(=O)/C=C\n1cnc(-c2cc(OCCN(C)C)cc(C(F)(F)F)c2)n1 | – |
| ≤ 1000 nM | CC(C)OC(=O)/C=C\n1cnc(-c2cc(Cl)cc(OC(C)C)c2)n1 | – |
| ≤ 1000 nM | CC(C)Nc1cc(-c2ncn(/C=C\C(=O)OC(C)C)n2)cc(C(F)(F)F)n1 | – |
| ≤ 1000 nM | CC(C)Nc1cc(-c2ncn(/C=C\C(=O)OC(C)C)n2)cc(Cl)n1 | – |
| ≤ 1000 nM | CC(C)Oc1cc(-c2ncn(/C=C\C(=O)OCc3ccccn3)n2)cc(C(F)(F)F)c1 | – |
| ≤ 1000 nM | CC(C)Oc1cc(-c2ncn(/C=C\C(=O)OCc3ccccn3)n2)cc(C(F)(F)F)n1 | – |
| ≤ 1000 nM | COC(=O)/C=C\n1cnc(-c2cc(Cl)cc(OC)c2)n1 | – |
| ≤ 1000 nM | COc1ccc(Cl)cc1-c1ncn(/C=C\C(=O)OC(C)C)n1 | – |
| ≤ 1000 nM | CC(C)OC(=O)/C=C\c1n[nH]c(-c2cccc(Cl)c2)n1 | – |
| ≤ 1000 nM | O=C(/C=C\n1cnc(-c2cccc(Cl)c2)n1)OC1CCOCC1 | – |
| ≤ 1000 nM | CC(C)OC(=O)/C=C\n1cnc(-c2cc(NC3CCC3)nc(C(F)(F)F)c2)n1 | – |

— ChEMBL document CHEMBL3879893, “Nuclear transport modulators and uses thereof” (2011)
